# Test results as given in US10993941B2, “Methods for the administration of certain VMAT2 inhibitors” (Neurocrine Biosciences, Inc., priority 2017, dated 2021).
# Entries after “also recorded” stand apart in the source; their conditions may differ.
# What was measured:
# human VMAT1 transporter = target: T1, human VMAT1 transporter (Homo sapiens, UniProt P54219); assay: Uptake in cells expressing VMAT1; type: cell-based; conditions: concentrations up to 10 μM; listed as VBZ
# T1 construct: expressed in transfected cells
# T1 sequence (P54219 1-525): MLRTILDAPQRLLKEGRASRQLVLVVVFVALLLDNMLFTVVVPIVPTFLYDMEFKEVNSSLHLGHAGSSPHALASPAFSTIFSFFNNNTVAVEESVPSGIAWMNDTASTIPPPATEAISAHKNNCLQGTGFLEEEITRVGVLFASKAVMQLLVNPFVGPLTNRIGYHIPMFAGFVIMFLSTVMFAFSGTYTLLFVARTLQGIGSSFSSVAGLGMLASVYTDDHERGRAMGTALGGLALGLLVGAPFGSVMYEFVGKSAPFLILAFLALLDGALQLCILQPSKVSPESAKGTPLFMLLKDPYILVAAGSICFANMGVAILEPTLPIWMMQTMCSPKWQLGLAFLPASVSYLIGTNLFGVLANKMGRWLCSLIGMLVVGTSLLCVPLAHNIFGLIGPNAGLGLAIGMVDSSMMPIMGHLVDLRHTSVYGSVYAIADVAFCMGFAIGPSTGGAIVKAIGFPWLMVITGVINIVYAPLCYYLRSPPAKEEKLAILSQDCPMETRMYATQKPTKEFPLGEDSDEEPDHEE
# Method: None of the TBZ or VBZ metabolites had any affinity for the monoamine transporters DAT, SERT or NET. To complete the selectivity profile for VMAT2, the functional activity for the human VMAT1 transporter of these compounds was tested in cells expressing VMAT1.
# [1] = Phase 1 single-dose safety and tolerability (adverse events, laboratory tests, vital signs, ECG); type: in vivo, human; conditions: NBI-98854 50 mg single dose; for Abdominal discomfort / Adverse events: Overall / Back pain / Constipation / Dyspepsia / Epistaxis / Gastrointestinal Disorders / General Disorders and Administrative Site Conditions / Haemorrhoids / Headache / Infections and Infestations / Musculoskeletal and Connective Tissue Disorders / Nausea / Nervous System Disorders / Rash / Respiratory, Thoracic, and Mediastinal Disorders / Rhinitis / Skin and Subcutaneous Tissue Disorders / Vessel puncture site haematoma: subjects n (%)
# [2] = system: more than 80 targets including GPCRs, cell-surface monoamine transporters, and ion channels including HERG; assay: Multi-target activity screen (Cerep screen); conditions: receptors
# VMAT2 [3] = target: T2, VMAT2 (Rattus norvegicus, UniProt Q01827); assay: Inhibition of [3H]-DHTBZ binding to rat striatal membranes; conditions: Rat Striatum
# T2 construct: from tissue; host or cells: rat forebrain membranes
# T2 sequence (Q01827 whole entry): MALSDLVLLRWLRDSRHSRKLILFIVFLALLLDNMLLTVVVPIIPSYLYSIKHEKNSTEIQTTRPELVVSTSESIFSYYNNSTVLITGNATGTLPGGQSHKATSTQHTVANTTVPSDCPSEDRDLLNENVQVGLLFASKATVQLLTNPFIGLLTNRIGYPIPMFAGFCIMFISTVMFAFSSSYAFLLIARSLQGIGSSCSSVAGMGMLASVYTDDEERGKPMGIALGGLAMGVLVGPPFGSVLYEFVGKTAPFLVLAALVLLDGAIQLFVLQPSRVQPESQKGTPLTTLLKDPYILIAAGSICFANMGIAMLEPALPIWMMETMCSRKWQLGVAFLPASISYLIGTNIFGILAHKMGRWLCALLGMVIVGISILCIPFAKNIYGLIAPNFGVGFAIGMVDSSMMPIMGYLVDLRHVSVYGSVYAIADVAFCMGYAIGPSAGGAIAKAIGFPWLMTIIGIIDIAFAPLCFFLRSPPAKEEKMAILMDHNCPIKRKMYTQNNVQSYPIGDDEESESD
# [4] = both, human, in vivo
# From the text: (§1) Overall, 24 male and female subjects were enrolled, including 6 subjects with normal hepatic function (Group I), 6 with mild stable hepatic impairment (Group II), 6 with moderate stable hepatic impairment (Group III), and 6 with severe stable hepatic impairment (Group IV). […] All subjects were genotyped to determine their cytochrome P450 2D6 (CYP2D6) status.
# (§2) The Child-Pugh scale was used to categorize the degree of hepatic impairment for assignment into the mild (score of 5-6), moderate (score of 7-9), and severe hepatic impairment (score of 10-15) groups.
# (§3) After providing informed consent, subjects were screened for eligibility within 28 days of study drug dosing on Day 1. Eligible subjects were admitted to the center in the morning (Day −1), before the dosing day and remained confined in the center for 4 days. Subjects were discharged on Day 4, after the collection of the 72-hour PK sample and safety assessments. On the morning of Days 5 and 6, subjects returned to the center for a PK sample collection and safety assessments; a final study visit was conducted on Day 8 (7 days postdose).
# (§4) Safety assessments were conducted at scheduled times throughout the study.
# VMAT2 [5] = target: T3, VMAT2 (Homo sapiens, UniProt Q05940); assay: Inhibition of [3H]-DHTBZ binding to human platelets
# T3 construct: from tissue; host or cells: human platelets (homogenates)
# T3 sequence (Q05940 whole entry): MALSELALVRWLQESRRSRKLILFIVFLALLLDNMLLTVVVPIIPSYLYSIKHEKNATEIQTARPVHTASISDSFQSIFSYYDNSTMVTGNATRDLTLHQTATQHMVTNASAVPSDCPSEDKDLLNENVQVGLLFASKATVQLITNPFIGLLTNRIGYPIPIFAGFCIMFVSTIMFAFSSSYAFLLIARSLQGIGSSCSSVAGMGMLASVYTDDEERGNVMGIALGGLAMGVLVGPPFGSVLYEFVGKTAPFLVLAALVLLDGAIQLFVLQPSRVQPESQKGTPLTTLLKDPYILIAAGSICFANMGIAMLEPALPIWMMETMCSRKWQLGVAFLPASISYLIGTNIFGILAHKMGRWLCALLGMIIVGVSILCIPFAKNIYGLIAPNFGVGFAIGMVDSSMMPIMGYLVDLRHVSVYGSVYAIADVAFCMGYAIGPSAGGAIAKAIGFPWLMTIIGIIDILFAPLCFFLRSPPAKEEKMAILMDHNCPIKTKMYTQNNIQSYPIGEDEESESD
# ptosis = assay: Ptosis, in vivo surrogate measure
# clinical = conditions: both, human, in vivo
# From the text: as §1, §2, §3, §4
# serum prolactin = assay: Prolactin release, in vivo surrogate measure
smiles,measurement,setting,value
"COc1cc2c(cc1OC)[C@H]1C[C@@H](OC(=O)[C@@H](N)C(C)C)[C@H](CC(C)C)CN1CC2 [NBI-98854, (S)-2-amino-3-methyl-butyric acid (2R,3R,11bR)-3-isobutyl-9,10-dimethoxy-1,3,4,6,7,11b-hexahydro-2H-pyrido[2,1-a]isoquinolin-2-yl ester]",inhibition of uptake through VMAT1,human VMAT1 transporter,no significant inhibitory activity; also recorded: no significant effect on the uptake of monoamines through VMAT1
same,Abdominal discomfort,[1]; Mild (N = 6),0
same,Adverse events: Overall,[1]; Mild (N = 6),2 (33.3%)
same,Back pain,[1]; Mild (N = 6),0
same,Constipation,[1]; Mild (N = 6),0
same,Dyspepsia,[1]; Mild (N = 6),0
same,Epistaxis,[1]; Mild (N = 6),0
same,Gastrointestinal Disorders,[1]; Mild (N = 6),1 (16.7%)
same,General Disorders and Administrative Site Conditions,[1]; Mild (N = 6),0
same,Haemorrhoids,[1]; Mild (N = 6),1 (16.7%)
same,Headache,[1]; Mild (N = 6),1 (16.7%)
same,Infections and Infestations,[1]; Mild (N = 6),1 (16.7%)
same,Musculoskeletal and Connective Tissue Disorders,[1]; Mild (N = 6),0
same,Nausea,[1]; Mild (N = 6),0
same,Nervous System Disorders,[1]; Mild (N = 6),1 (16.7%)
same,Rash,[1]; Mild (N = 6),0
same,"Respiratory, Thoracic, and Mediastinal Disorders",[1]; Mild (N = 6),0
same,Rhinitis,[1]; Mild (N = 6),1 (16.7%)
same,Skin and Subcutaneous Tissue Disorders,[1]; Mild (N = 6),0
same,Vessel puncture site haematoma,[1]; Mild (N = 6),0
same,Abdominal discomfort,[1]; Moderate (N = 6),0
same,Adverse events: Overall,[1]; Moderate (N = 6),2 (33.3%)
same,Back pain,[1]; Moderate (N = 6),1 (16.7%)
same,Constipation,[1]; Moderate (N = 6),1 (16.7%)
same,Dyspepsia,[1]; Moderate (N = 6),0
same,Epistaxis,[1]; Moderate (N = 6),0
same,Gastrointestinal Disorders,[1]; Moderate (N = 6),1 (16.7%)
same,General Disorders and Administrative Site Conditions,[1]; Moderate (N = 6),0
same,Haemorrhoids,[1]; Moderate (N = 6),0
same,Headache,[1]; Moderate (N = 6),0
same,Infections and Infestations,[1]; Moderate (N = 6),0
same,Musculoskeletal and Connective Tissue Disorders,[1]; Moderate (N = 6),1 (16.7%)
same,Nausea,[1]; Moderate (N = 6),0
same,Nervous System Disorders,[1]; Moderate (N = 6),0
same,Rash,[1]; Moderate (N = 6),1 (16.7%)
same,"Respiratory, Thoracic, and Mediastinal Disorders",[1]; Moderate (N = 6),0
same,Rhinitis,[1]; Moderate (N = 6),0
same,Skin and Subcutaneous Tissue Disorders,[1]; Moderate (N = 6),1 (16.7%)
same,Vessel puncture site haematoma,[1]; Moderate (N = 6),0
same,Abdominal discomfort,[1]; Normal (N = 6),1 (16.7%)
same,Adverse events: Overall,[1]; Normal (N = 6),2 (33.3%)
same,Back pain,[1]; Normal (N = 6),0
same,Constipation,[1]; Normal (N = 6),0
same,Dyspepsia,[1]; Normal (N = 6),0
same,Epistaxis,[1]; Normal (N = 6),0
same,Gastrointestinal Disorders,[1]; Normal (N = 6),1 (16.7%)
same,General Disorders and Administrative Site Conditions,[1]; Normal (N = 6),1 (16.7%)
same,Haemorrhoids,[1]; Normal (N = 6),0
same,Headache,[1]; Normal (N = 6),0
same,Infections and Infestations,[1]; Normal (N = 6),0
same,Musculoskeletal and Connective Tissue Disorders,[1]; Normal (N = 6),0
same,Nausea,[1]; Normal (N = 6),0
same,Nervous System Disorders,[1]; Normal (N = 6),0
same,Rash,[1]; Normal (N = 6),0
same,"Respiratory, Thoracic, and Mediastinal Disorders",[1]; Normal (N = 6),0
same,Rhinitis,[1]; Normal (N = 6),0
same,Skin and Subcutaneous Tissue Disorders,[1]; Normal (N = 6),0
same,Vessel puncture site haematoma,[1]; Normal (N = 6),1 (16.7%)
same,Abdominal discomfort,[1]; Severe (N = 6),0
same,Adverse events: Overall,[1]; Severe (N = 6),2 (33.3%)
same,Back pain,[1]; Severe (N = 6),0
same,Constipation,[1]; Severe (N = 6),0
same,Dyspepsia,[1]; Severe (N = 6),1 (16.7%)
same,Epistaxis,[1]; Severe (N = 6),1 (16.7%)
same,Gastrointestinal Disorders,[1]; Severe (N = 6),1 (16.7%)
same,General Disorders and Administrative Site Conditions,[1]; Severe (N = 6),0
same,Haemorrhoids,[1]; Severe (N = 6),0
same,Headache,[1]; Severe (N = 6),0
same,Infections and Infestations,[1]; Severe (N = 6),0
same,Musculoskeletal and Connective Tissue Disorders,[1]; Severe (N = 6),0
same,Nausea,[1]; Severe (N = 6),1 (16.7%)
same,Nervous System Disorders,[1]; Severe (N = 6),0
same,Rash,[1]; Severe (N = 6),0
same,"Respiratory, Thoracic, and Mediastinal Disorders",[1]; Severe (N = 6),1 (16.7%)
same,Rhinitis,[1]; Severe (N = 6),0
same,Skin and Subcutaneous Tissue Disorders,[1]; Severe (N = 6),0
same,Vessel puncture site haematoma,[1]; Severe (N = 6),0
same,intensity of TEAEs judged by the investigator,[1]; all TEAEs,mild in intensity
same,"changes in clinical laboratory tests, vital signs measurements, or ECG parameters",[1]; all groups,no clinically significant changes
same,"deaths, serious or severe TEAEs",[1]; all groups,"No deaths, serious or severe treatment-emergent adverse events (TEAEs) were reported; also recorded: No deaths, serious TEAEs, or discontinuations due to an AE were reported"
same,discontinuation due to a TEAE,[1]; all groups,no subject discontinued the study due to a TEAE
same,tolerability,[1]; normal subjects and subjects with hepatic impairment,well-tolerated
same,Treatment-related AEs (possibly or definitely related to study drug),[1]; of 24 subjects,4 subjects
same,affinity for more than 80 binding sites,[2],little to no affinity
same,"Affinity Relative to R,R,R-DHTBZ",VMAT2 [3],39
same,increase in Cmax,[4],2-3 fold
same,increase in t1/2 with hepatic impairment,[4],< 2 fold
same,increase in tmax with hepatic impairment,[4],< 2 fold
same,mean Tlag,[4],0.17 to 0.38 h
same,"Affinity Relative to R,R,R-DHTBZ",VMAT2 [5],45
same,induction of ptosis,ptosis,induced ptosis in an equivalent manner
same,MRT,clinical,23 to 30 h
same,half-life,clinical; mean t1/2,21 to 22 h
same,MRT,"clinical; po, 50 mg",24 h
same,Tmax,"clinical; po, 50 mg, TMAX",1.1 h
same,Vd/F,"clinical; po, 50 mg, Vz/F",600 L
same,half-life,"clinical; po, 50 mg, t1/2",28 h
same,increase in serum prolactin levels,serum prolactin,to a lesser extent
